Results reported in patent US8993556B2, “Resorcinol derivatives as HSP90 inhibitors” (priority 2009, dated 2015).
Like-named read-outs stand apart in the source and are kept apart here.

Assays:
[1] = test system: Her2 protein levels in BT474 breast cancer cells; test: Her2 Degradation Assay; type: cell-based; conditions: Homo sapiens
Protocol: The potencies of the compounds of the present invention were evaluated by measuring the Her2 degradation as a marker for HSP90 inhibition.
HSP90 is a key component of a chaperone machinery that catalyzes the folding and quality control of several proteins. Its inhibition impairs the capacity to fold or stabilize its client proteins, leading to the proteosomal dependent degradation of these unfolded proteins. […] Cellular activity of HSP90 inhibitors was assessed by measuring the induced loss of Her2 protein levels in BT474 breast cancer cells (ATCC #HTB-20). Cellular Her2 levels were measured by immunocytochemistry, and quantified using an ArrayScan vTi instrument (Cellomics Thermo Scientific).
Cellular activity of HSP90 inhibitors was assessed by measuring the induced loss of Her2 protein levels in BT474 breast cancer cells (ATCC #HTB-20). Cellular Her2 levels were measured by immunocytochemistry, and quantified using an ArrayScan vTi instrument (Cellomics Thermo Scientific).
Studies were performed as follows: 5000 cells/well are seeded in 96 well plates (Perkin Elmer) in DMEM/5% FCS and incubated for 48 hours at 37° C., 5% CO2.
Medium is then replaced with fresh medium containing test compounds at the required concentration. Concentration curves are prepared in DMEM/10% FCS from compound stocks in DMSO, and final DMSO concentration is 0.1% (v/v). Duplicate wells for each concentration point are prepared, with a typical highest compound concentration of 30 μM. […] Plates are incubated for 20 minutes at room temperature, then wells are washed in PBS and cells permiabilised by incubating with PBS containing 0.3% Triton X-100 for 15 minutes at room temperature. Non-specific binding sites are blocked by incubating wells for 1 hour in PBS containing 3% (w/v) BSA. Wells are then incubated for 1 hour at room temperature in PBS containing anti Her2 mouse monoclonal (Anti-c-ErbB2/c-Neu, Mouse mAb 3B5, Calbiochem Cat N^o OP15) diluted 1:100 in 1% (w/v) BSA. […] After washing a further 3 times in PBS, cellular Her2 immunoreactivity is assessed using the ArrayScan vTi instrument, with a Zeiss 10× 0.5 N.A. objective, and applying the Cytotoxity.V3 algorithm (Cellomics/Thermo Fisher) with a XF100 filter. At least 10 fields, corresponding to at least 900 cells, are read for each well.
IC50 is the response; IC50 starts at Bottom and goes to Top with a sigmoid shape. In Vitro Cell Proliferation Assay

[2] = test system: A2780 human ovarian cells; test: In Vitro Cell Proliferation Assay; type: cell-based
Protocol: The cells were incubated at 37° C. and 5% CO2 and after 72 hours the plates were processed using CellTiter-Glo assay (Promega) following the manufacturer's instruction.
CellTiter-Glo is a homogenous method based on the quantification of the ATP present, an indicator of metabolically active cells. ATP is quantified using a system based on luciferase and D-luciferin resulting into light generation. The luminescent signal is proportional to the number of cells present in culture.
Briefly 25 μL/well reagent solution are added to each wells and after 5 minutes shacking microplates are red by a luminometer. The luminescent signal is proportional to the number of cells present in culture.

[3] = target: His-HSP90 N-term domain; test: Determination of KD Via Biacore; type: binding; conditions: Biacore T100
Protocol: The evaluation of the binding affinity (KD) of the compounds of formula (I) to the HSP90 protein was done using Biacore T100.
His-HSP90 N-term domain was immobilized by capture of his tag by the Ab previously covalently bound to the chip (CM5) surface.
The compounds were analyzed using the following running buffer: 20 mM Tris/HCl pH 7.6, 150 mM KCl, 5 mM MgCl2, 0.05% P20 and 1% DMSO. The flow rate was 50 ul/min with and association time of 60 seconds.
The cpds were diluted in running buffer from 100× stock solution; the different conc injected were obtained from a sequential dilution in order to have the same DMSO conc. in each sample and avoid any solvent correction.

[4] = in vivo; conditions: Mouse Balb Nu/Nu, single; for clearance / half-life / Vd: 10 mg/kg IV bolus; for clearance: read-out: CL (mL/h/kg) Plasma clearance (converted); for half-life: read-out: T1/2 (h) Terminal half-life (converted); for Vd: read-out: Vdss (mL/kg) Volume of distribution at steady state; for bioavailability: 10 mg/kg oral vs 10 mg/kg IV, read-out: F % Oral bioavailability
Protocol: Calibration Standards and Quality Controls were prepared spiking blank mouse plasma with appropriate working solutions.
Sample plasma proteins were precipitated by adding 160 μL of acetonitrile/methanol 90/10 to 20 μL of mouse plasma in a 96 well plate.
After heat sealing and mixing for 3 minutes, the plate was centrifuged for 15 minutes at 4000 rpm.
The supernatant was considered as final extract and injected onto the LC-MS-MS system.
• UPLC system: Waters Acquity BSM • Mobile phase A: 95:5-5 mM Ammonium Formate pH3.5: Acetonitrile • Mobile phase B: 5:95-5 mM Ammonium Formate pH3.5: Acetonitrile • Analytical column: BEH C18 50×2.1 1.7 μm • Elution conditions:
• Total Run Time: 2.0 min. • Flow rate: 0.500 mL/min • Approximate retention time: NMS-03308086: 0.67 min. • Column oven temp: 40° C. • Autosampler type: Waters Acquity SM • Injection volume: 3 μL • Injection mode: Partial Loop with Needle Overfill • Autosampler temperature: 5° C. • MS instrument: Waters TQD • Ionisation: ES+ • Capillary: 1.5 kV • Cone: 70 V • Source Temperature: 150° C. • Desolvation Flow and Temp.: 900 L/h-400° C. • Collision Gas Flow: 0.2 mL/min • Collision Energy: 40 • MRM transitions: NMS-03308086: m/z 579.1>m/z 97.0 • Dwell Time: 0.1 seconds • LLOQ: 5.0 ng/mL • ULOQ: 5000 ng/mL • Software used: Mass Lynx 4.1 SCN627

[5] = test system: human ovarian carcinoma cell line A2780 transplanted in immunodeficient mice; test: In Vivo Antitumor Efficacy; design: species or system mouse; conditions: for TGI: A2780 in athymic mice
Protocol: Antitumor activity of HSP90 inhibitors was assessed in vivo using the human ovarian carcinoma cell line A2780 transplanted in immunodeficient mice.
Balb Nu/Nu, male mice, (athymic mice) from Harlan, Italy, were maintained in cages with paper filter covers, food and bedding sterilized and water acidified. A2780 tumors were maintained in vivo by serial transplantation and, at the time of efficacy experiments, implanted subcutaneously in athymic mice. The treatments started 8 days later when the tumors were palpable. HSP90 inhibitors were prepared immediately before use and administered intravenously in a volume of 10 ml/kg at different doses.
Tumor growth was assessed by caliper. The two diameters were recorded, and the tumor weight was calculated according to the following formula: length (mm)×width^2 (mm)/2. The effect of the antitumor treatment was determined as tumor growth inhibition (TGI %) of treated group respect to vehicle treated controls.

[6] = BT-474, 8 h, read-out: Her2 Degradation IC50 (μM)
[7] = Homo sapiens, A2780, 72 h, read-out: A2780 Proliferation IC50 (μM)
[8] = BT-474, BT474 breast cancer cells, 8 hours, read-out: Her2 Degradation IC50
[9] = A2780 human ovarian cells, 72 hours, CellTiter-Glo, read-out: A2780 Proliferation IC50

Row | SMILES | IC50 [1, 6] | IC50 [2, 7] | Kd [3] | clearance [4] | half-life [4] | Vd [4] | bioavailability [4] | IC50 [1, 8] | further results
1 | CC(C)N1CCC(NC(=O)c2cc(-c3c(O)cc(O)cc3Oc3ccc([N+](=O)[O-])cc3)on2)CC1 [5-[2,4-Dihydroxy-6-(4-nitrophenoxy)phenyl]-N-[1-(propan-2-yl)piperidin-4-yl]isoxazole-3-carboxamide] | 0.058 µM |  |  |  |  |  |  |  | 
2 | CN(C)c1ccc(Oc2cc(O)cc(O)c2-c2cc(C(=O)NC3CCN(CC4CCCCC4)CC3)no2)cc1 [N-[1-(Cyclohexylmethyl)piperidin-4-yl]-5-{2-[4-(dimethylamino)phenoxy]-4,6-dihydroxyphenyl}isoxazole-3-carboxamide] | 0.02 µM | 0.01 µM | 0.188 nM |  |  |  |  |  | 
3 | O=C(NC1CCN(C2CCC(F)(F)CC2)CC1)c1cc(-c2c(O)cc(O)cc2Oc2ccc([N+](=O)[O-])cc2)on1 [N-[1-(4,4-Difluorocyclohexyl)piperidin-4-yl]-5-[2,4-dihydroxy-6-(4-nitrophenoxy)phenyl]isoxazole-3-carboxamide] | 0.027 µM | 0.05 µM | 0.8 nM |  |  |  |  |  | 
4 | CCNC(=O)c1cc(-c2c(O)cc(O)cc2Oc2ccc([N+](=O)[O-])cc2)on1 [5-[2,4-Dihydroxy-6-(4-nitrophenoxy)phenyl]-N-ethyl isoxazole-3-carboxamide] | 0.059 µM | 0.07 µM |  |  |  |  |  |  | 
5 | CCNC(=O)c1cc(-c2c(O)cc(O)cc2Oc2ccc(Cl)cc2)on1 [5-[2-(4-chlorophenoxy)-4,6-dihydroxyphenyl]-N-ethylisoxazole-3-carboxamide] | 0.059 µM |  |  |  |  |  |  |  | 
6 | CN(C)c1ccc(Oc2cc(O)cc(O)c2-c2cc(C(=O)NC3CCN(C4CCC5(CC4)OCCO5)CC3)no2)cc1 |  |  |  | 1760 mL/h/kg | 5.46 h | 4940 mL/kg | 36% |  | 
7 | CN(C)c1ccc(Oc2cc(O)cc(O)c2-c2cc(C(=O)NC3CCN(C4CCCCC4)CC3)no2)cc1 [N-(1-Cyclohexylpiperidin-4-yl)-5-{2-[4-(dimethylamino)phenoxy]-4,6-dihydroxyphenyl}isoxazole-3-carboxamide] | 0.003 µM |  |  |  |  |  |  |  | 
8 | CN1CCC(NC(=O)c2cc(-c3c(O)cc(O)cc3Oc3ccc([N+](=O)[O-])cc3)no2)CC1 [3-[2,4-Dihydroxy-6-(4-nitrophenoxy)phenyl]-N-(1-methylpiperidin-4-yl)isoxazole-5-carboxamide] | 0.022 µM | 0.02 µM | 0.24 nM | 3420 mL/h/kg | 1.52 h | 4470 mL/kg | 7% |  | 
9 | CN(C)c1ccc(Oc2cc(O)cc(O)c2-c2cc(C(=O)NC3CCN(C4CCC(F)(F)CC4)CC3)no2)cc1 [N-[1-(4,4-Difluorocyclohexyl)piperidin-4-yl]-5-{2-[4-(dimethylamino)phenoxy]-4,6-dihydroxyphenyl}isoxazole-3-carboxamide] | 0.002 µM | 0.02 µM | 0.057 nM |  |  |  |  |  | 
10 | CCNC(=O)c1cc(-c2c(O)cc(O)cc2Oc2ccc(C#N)cc2)on1 [5-[2-(4-Cyanophenoxy)-4,6-dihydroxyphenyl]-N-ethylisoxazole-3-carboxamide] |  |  |  |  |  |  |  | 0.277 µM | 
11 | CN(C)c1ccc(Oc2cc(O)cc(O)c2-c2cc(C(=O)NC3CCN(C4CCC5(CC4)OCC(C)(C)CO5)CC3)no2)cc1 [5-{2-[4-(Dimethylamino)phenoxy]-4,6-dihydroxyphenyl}-N-[1-(3,3-dimethyl-1,5-dioxaspiro[5.5]undec-9-yl)piperidin-4-yl]isoxazole-3-carboxamide] |  |  | 0.08 nM | 1340 mL/h/kg | 6.71 h | 6000 mL/kg | 19% | 0.037 µM | IC50 [2, 9]: 0.035 µM
12 | CN1CCC(NC(=O)c2cc(-c3c(O)cc(O)cc3Oc3ccc([N+](=O)[O-])cc3)on2)CC1 [5-[2,4-dihydroxy-6-(4-nitrophenoxy)phenyl]-N-(1-methylpiperidin-4-yl)isoxazole-3-carboxamide] |  |  |  |  |  |  |  | 0.11 µM | IC50 [2, 9]: 0.06 µM; TGI ([5]; 30 mg/kg for 10 consecutive days, intravenously): 53%; TGI ([5]; 60 mg/kg for 10 consecutive days, intravenously): 74%; signs of toxicities ([5]; 30 and 60 mg/kg for 10 consecutive days, athymic mice): without signs of toxicities
13 | CN1CCC(NC(=O)c2cc(-c3c(O)cc(O)cc3Oc3ccc(N(C)C)cc3)on2)CC1 [5-{2-[4-(Dimethylamino)phenoxy]-4,6-dihydroxyphenyl}-N-(1-methylpiperidin-4-yl)isoxazole-3-carboxamide] |  |  |  |  |  |  |  | 0.039 µM | TGI ([5]; intravenously at 40 mg/Kg daily): 77%
14 | CN(C)c1ccc(Oc2cc(O)cc(O)c2-c2cc(C(=O)NC3CCN(C4CCC5(CC4)OCCO5)CC3)on2)cc1 [3-{2-[4-(Dimethylamino)phenoxy]-4,6-dihydroxyphenyl}-N-[1-(1,4-dioxaspiro[4.5]dec-8-yl)piperidin-4-yl]isoxazole-5-carboxamide] |  |  | 0.043 nM | 1910 mL/h/kg | 7.23 h | 9120 mL/kg | 23% | 0.003 µM | IC50 [2, 9]: 0.02 µM
15 | CN(C)c1ccc(Oc2cc(O)cc(O)c2-c2cc(C(=O)NC3CCN(C4CCC5(CC4)OCCCCO5)CC3)no2)cc1 [5-{2-[4-(Dimethylamino)phenoxy]-4,6-dihydroxyphenyl}-N-[1-(7,12-dioxaspiro[5.6]dodec-3-yl)piperidin-4-yl]isoxazole-3-carboxamide] |  |  | 0.423 nM | 1310 mL/h/kg | 6.87 h | 5980 mL/kg | 14% | 0.045 µM | IC50 [2, 9]: 0.023 µM
